Laboratory results as given in ChEMBL document CHEMBL1145498, “A systematic interaction map of validated kinase inhibitors with Ser/Thr kinases” (Proc Natl Acad Sci U S A, 2007).

How the values were obtained:
[1] = molecular target: Death-associated protein kinase 3 (Homo sapiens) (UniProt O43293)
[2] = molecular target: Tyrosine-protein kinase JAK1 (Homo sapiens) (UniProt P23458)
[3] = molecular target: Casein kinase I isoform gamma-1 (Homo sapiens) (UniProt Q9HCP0)
[4] = molecular target: Cyclin-dependent kinase 2 (Homo sapiens, UniProt P24941)
[5] = molecular target: Serine/threonine-protein kinase pim-3 (Homo sapiens) (UniProt Q86V86)
[6] = molecular target: TRAF2 and NCK-interacting protein kinase (Homo sapiens) (UniProt Q9UKE5)
[7] = molecular target: T1, Lymphokine-activated killer T-cell-originated protein kinase (Homo sapiens) (UniProt Q96KB5)
T1 sequence (whole entry): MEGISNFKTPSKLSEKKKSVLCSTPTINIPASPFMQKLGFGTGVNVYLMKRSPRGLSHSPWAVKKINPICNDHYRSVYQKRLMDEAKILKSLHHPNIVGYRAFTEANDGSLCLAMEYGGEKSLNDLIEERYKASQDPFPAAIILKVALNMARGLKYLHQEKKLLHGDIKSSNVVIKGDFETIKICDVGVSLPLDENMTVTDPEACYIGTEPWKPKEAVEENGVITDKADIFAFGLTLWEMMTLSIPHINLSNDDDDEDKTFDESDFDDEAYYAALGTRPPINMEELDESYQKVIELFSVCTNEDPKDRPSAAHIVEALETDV

[8] = molecular target: 5'-AMP-activated protein kinase catalytic subunit alpha-2 (Homo sapiens) (UniProt P54646)
[9] = molecular target: Cyclin-dependent kinase 16 (Homo sapiens) (UniProt Q00536)
[10] = molecular target: Calcium/calmodulin-dependent protein kinase kinase 2 (Homo sapiens, UniProt Q96RR4)
[11] = molecular target: Casein kinase I isoform gamma-2 (Homo sapiens) (UniProt P78368)
[12] = molecular target: STE20-like serine/threonine-protein kinase (Homo sapiens) (UniProt Q9H2G2)
[13] = molecular target: Mitogen-activated protein kinase 3 (Homo sapiens, UniProt P27361)
[14] = molecular target: Serine/threonine-protein kinase PAK 5 (Homo sapiens) (UniProt Q9P286)
[15] = molecular target: Glycogen synthase kinase-3 beta (Homo sapiens, UniProt P49841)
[16] = molecular target: Dual specificity mitogen-activated protein kinase kinase 2 (Homo sapiens, UniProt P36507)
Chain of Dual specificity mitogen-activated protein kinase kinase 2 (P36507 whole entry): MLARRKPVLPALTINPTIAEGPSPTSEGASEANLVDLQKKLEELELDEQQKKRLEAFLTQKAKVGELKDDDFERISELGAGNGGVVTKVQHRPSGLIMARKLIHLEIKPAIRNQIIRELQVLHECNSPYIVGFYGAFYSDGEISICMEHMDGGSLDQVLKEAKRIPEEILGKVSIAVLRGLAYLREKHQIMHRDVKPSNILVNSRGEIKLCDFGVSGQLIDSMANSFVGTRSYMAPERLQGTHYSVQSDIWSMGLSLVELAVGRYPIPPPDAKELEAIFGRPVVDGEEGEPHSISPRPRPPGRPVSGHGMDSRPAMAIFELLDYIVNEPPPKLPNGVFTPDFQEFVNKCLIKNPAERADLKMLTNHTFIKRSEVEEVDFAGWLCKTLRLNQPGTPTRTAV

[17] = molecular target: Serine/threonine-protein kinase OSR1 (Homo sapiens) (UniProt O95747)
[18] = molecular target: Serine/threonine-protein kinase RIO2 (Homo sapiens) (UniProt Q9BVS4)
[19] = molecular target: Calcium/calmodulin-dependent protein kinase type 1D (Homo sapiens) (UniProt Q8IU85)
[20] = molecular target: Serine/threonine-protein kinase Nek6 (Homo sapiens) (UniProt Q9HC98)
[21] = molecular target: Calcium/calmodulin-dependent protein kinase type II subunit delta (Homo sapiens) (UniProt Q13557)
Chain of Calcium/calmodulin-dependent protein kinase type II subunit delta (Homo sapiens) (Q13557 whole entry): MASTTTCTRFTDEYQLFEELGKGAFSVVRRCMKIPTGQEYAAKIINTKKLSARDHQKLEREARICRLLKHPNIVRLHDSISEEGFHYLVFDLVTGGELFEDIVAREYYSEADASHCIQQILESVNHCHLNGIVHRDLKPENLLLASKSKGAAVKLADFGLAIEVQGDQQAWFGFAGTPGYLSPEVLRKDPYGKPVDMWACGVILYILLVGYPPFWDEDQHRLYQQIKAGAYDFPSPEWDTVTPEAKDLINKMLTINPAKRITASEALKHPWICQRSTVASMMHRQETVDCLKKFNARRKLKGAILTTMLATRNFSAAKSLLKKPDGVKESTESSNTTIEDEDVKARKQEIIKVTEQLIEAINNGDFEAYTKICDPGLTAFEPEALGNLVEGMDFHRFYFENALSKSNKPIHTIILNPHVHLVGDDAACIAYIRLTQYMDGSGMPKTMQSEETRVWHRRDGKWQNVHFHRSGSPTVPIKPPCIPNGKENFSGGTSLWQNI

[22] = molecular target: Serine/threonine-protein kinase 25 (Homo sapiens) (UniProt O00506)
[23] = molecular target: Calcium/calmodulin-dependent protein kinase type 1G (Homo sapiens) (UniProt Q96NX5)
[24] = molecular target: Dual specificity protein kinase CLK2 (Homo sapiens) (UniProt P49760)
Chain of Dual specificity protein kinase CLK2 (Homo sapiens) (P49760 whole entry, looked up): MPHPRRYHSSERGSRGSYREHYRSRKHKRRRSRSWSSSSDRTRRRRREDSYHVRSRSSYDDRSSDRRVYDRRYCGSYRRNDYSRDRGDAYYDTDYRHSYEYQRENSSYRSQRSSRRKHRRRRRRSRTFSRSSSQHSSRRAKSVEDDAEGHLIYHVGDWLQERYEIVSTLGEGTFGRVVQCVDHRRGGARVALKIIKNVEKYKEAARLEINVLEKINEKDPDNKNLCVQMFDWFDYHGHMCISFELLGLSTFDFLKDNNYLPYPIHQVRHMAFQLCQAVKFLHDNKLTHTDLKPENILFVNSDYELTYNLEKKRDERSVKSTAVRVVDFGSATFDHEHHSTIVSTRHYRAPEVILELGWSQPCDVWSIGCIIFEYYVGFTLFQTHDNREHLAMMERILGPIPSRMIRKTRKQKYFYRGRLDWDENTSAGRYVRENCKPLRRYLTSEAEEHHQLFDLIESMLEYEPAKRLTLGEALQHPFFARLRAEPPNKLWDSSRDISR

[25] = molecular target: Serine/threonine-protein kinase PLK1 (Homo sapiens) (UniProt P53350)
[26] = molecular target: Serine/threonine-protein kinase 26 (Homo sapiens) (UniProt Q9P289)
[27] = molecular target: Ribosomal protein S6 kinase alpha-3 (Homo sapiens) (UniProt P51812)
[28] = molecular target: Serine/threonine-protein kinase 10 (Homo sapiens) (UniProt O94804)
Chain of Serine/threonine-protein kinase 10 (Homo sapiens) (O94804 whole entry, looked up): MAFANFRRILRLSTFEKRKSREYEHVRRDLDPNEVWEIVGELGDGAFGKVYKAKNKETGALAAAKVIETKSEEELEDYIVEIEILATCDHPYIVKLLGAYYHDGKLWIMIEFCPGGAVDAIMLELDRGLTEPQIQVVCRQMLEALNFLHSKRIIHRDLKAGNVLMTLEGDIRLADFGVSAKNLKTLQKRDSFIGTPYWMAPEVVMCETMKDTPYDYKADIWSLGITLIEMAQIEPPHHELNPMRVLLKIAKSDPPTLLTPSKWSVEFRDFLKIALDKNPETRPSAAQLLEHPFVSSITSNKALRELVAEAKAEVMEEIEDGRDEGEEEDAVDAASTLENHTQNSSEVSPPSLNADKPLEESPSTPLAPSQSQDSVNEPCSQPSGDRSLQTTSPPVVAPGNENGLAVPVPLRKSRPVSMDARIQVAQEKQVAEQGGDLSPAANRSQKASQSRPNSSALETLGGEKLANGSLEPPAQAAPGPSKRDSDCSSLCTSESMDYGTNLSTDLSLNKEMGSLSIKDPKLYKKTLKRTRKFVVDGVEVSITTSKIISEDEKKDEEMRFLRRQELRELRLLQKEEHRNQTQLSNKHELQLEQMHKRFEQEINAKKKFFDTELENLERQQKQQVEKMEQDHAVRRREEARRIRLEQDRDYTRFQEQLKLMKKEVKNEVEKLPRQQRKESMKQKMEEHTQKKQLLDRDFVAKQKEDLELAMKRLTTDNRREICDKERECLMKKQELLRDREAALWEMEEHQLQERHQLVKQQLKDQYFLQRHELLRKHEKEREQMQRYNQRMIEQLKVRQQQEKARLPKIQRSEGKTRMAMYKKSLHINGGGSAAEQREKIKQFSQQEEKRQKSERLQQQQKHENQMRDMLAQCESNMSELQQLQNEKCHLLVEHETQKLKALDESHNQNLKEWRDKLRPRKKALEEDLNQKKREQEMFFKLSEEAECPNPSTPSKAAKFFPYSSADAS

[29] = molecular target: cAMP-dependent protein kinase catalytic subunit alpha (Homo sapiens) (UniProt P17612)
[30] = molecular target: T2, Dual specificity mitogen-activated protein kinase kinase 6 (Homo sapiens) (UniProt P52564)
T2 sequence (whole entry): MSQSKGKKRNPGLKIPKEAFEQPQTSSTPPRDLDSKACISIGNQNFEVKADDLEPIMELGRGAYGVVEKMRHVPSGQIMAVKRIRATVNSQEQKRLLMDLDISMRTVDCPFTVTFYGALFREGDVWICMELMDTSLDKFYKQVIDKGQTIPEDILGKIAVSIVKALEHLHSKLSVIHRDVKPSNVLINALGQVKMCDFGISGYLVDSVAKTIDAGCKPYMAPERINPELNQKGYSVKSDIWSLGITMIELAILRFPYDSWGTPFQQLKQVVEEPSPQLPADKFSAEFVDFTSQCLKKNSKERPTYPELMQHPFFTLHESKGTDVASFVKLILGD

Chain of Tyrosine-protein kinase JAK1 (Homo sapiens) (P23458 whole entry, canonical isoform): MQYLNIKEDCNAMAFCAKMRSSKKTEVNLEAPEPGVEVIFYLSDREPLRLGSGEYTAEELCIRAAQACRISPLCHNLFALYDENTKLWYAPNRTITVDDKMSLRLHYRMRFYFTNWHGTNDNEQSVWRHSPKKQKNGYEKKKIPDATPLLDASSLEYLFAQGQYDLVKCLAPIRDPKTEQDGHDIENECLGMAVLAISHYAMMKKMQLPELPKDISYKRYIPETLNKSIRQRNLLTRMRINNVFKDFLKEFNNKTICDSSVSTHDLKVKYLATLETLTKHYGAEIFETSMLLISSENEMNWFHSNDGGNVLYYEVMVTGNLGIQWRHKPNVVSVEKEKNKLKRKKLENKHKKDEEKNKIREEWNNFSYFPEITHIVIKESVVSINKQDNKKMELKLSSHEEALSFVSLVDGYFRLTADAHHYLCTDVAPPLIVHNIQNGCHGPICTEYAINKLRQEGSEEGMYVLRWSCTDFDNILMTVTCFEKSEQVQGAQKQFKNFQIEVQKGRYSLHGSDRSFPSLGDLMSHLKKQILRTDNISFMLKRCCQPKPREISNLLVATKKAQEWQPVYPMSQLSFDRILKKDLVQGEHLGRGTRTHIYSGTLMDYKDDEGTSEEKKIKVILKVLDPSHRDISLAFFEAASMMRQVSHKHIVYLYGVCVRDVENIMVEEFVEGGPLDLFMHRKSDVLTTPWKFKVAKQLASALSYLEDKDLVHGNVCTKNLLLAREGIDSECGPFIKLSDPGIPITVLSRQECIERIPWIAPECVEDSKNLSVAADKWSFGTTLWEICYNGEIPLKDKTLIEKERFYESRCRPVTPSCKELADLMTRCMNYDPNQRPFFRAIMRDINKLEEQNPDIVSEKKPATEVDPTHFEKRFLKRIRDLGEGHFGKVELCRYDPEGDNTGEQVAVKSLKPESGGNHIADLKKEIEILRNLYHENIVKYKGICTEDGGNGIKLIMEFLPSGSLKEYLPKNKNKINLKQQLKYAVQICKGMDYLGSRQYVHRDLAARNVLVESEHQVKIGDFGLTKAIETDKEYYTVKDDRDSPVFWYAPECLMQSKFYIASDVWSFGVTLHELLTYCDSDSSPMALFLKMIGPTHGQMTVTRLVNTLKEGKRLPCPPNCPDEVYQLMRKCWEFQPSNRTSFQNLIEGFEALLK
Chain of Casein kinase I isoform gamma-1 (Homo sapiens) (Q9HCP0 whole entry, looked up, canonical isoform): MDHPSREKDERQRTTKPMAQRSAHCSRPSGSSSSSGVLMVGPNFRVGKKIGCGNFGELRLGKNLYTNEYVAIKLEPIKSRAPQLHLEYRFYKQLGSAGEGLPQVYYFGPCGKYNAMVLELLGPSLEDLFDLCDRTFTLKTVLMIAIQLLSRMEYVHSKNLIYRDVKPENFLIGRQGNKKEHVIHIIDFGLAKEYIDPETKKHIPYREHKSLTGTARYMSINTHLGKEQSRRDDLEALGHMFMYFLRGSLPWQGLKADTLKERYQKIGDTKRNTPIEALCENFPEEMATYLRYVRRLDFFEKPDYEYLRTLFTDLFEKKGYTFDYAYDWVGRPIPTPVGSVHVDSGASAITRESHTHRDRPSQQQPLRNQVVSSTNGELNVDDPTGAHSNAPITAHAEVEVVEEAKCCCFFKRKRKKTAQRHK
Chain of Death-associated protein kinase 3 (Homo sapiens) (O43293 whole entry, looked up): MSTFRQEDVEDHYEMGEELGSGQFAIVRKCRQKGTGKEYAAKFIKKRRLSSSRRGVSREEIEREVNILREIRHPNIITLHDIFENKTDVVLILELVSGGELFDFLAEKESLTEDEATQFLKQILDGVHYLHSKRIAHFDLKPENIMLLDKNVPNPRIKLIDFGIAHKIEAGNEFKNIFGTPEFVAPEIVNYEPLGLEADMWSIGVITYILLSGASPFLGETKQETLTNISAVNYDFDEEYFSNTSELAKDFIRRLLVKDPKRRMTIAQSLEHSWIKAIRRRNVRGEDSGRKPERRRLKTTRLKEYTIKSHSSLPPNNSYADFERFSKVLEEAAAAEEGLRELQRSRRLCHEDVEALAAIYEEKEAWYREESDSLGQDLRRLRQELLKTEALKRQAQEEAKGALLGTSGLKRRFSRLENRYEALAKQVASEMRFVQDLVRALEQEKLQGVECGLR

SMILES | ΔTm [1] | ΔTm [2] | ΔTm [3] | ΔTm [4] | ΔTm [5] | ΔTm [6] | ΔTm [7] | ΔTm [8] | ΔTm [9] | ΔTm [10] | ΔTm [11] | ΔTm [12] | ΔTm [13] | ΔTm [14] | ΔTm [15] | ΔTm [16] | ΔTm [17] | ΔTm [18] | ΔTm [19] | ΔTm [20] | also measured
CN(C)c1ccc(CC2C(=O)Nc3ccccc32)cc1 (stereo not given) | -0.8 °C | 5.5 °C | 1.2 °C | 1 °C | 1.2 °C | 4.1 °C | 0.1 °C | 0.3 °C | -0.5 °C | 2 °C | 0.8 °C | 0.8 °C | 0.4 °C | 0.3 °C | 1.2 °C | 1.4 °C | -0.6 °C | 0.9 °C | 0 °C | 0 °C | ΔTm [21]: 0.5 °C; ΔTm [22]: 2.4 °C; ΔTm [23]: -0.2 °C; ΔTm [24]: 1.7 °C; ΔTm [25]: -0.2 °C; ΔTm [26]: 0.3 °C; ΔTm [27]: 0.9 °C; ΔTm [28]: 0.9 °C; ΔTm [29]: 0.2 °C; ΔTm [30]: 0.5 °C
O=C1Nc2ccc(I)cc2/C1=C\c1cc(Br)c(O)c(Br)c1 | 2.6 °C | 4.5 °C | 0.2 °C | 1.2 °C | 6 °C | 3.9 °C | 0.9 °C | 1 °C | -0.4 °C | 3.5 °C | 1.1 °C | 2.2 °C | 0.5 °C | 1 °C | 3.6 °C | 0.2 °C | -0.4 °C | -0.4 °C | -0.1 °C | 0 °C | ΔTm [21]: 0.9 °C; ΔTm [22]: 0.6 °C; ΔTm [23]: -1.8 °C; ΔTm [24]: 1.2 °C; ΔTm [25]: 0.5 °C; ΔTm [26]: 1.6 °C; ΔTm [27]: 5.1 °C; ΔTm [28]: 0.5 °C; ΔTm [29]: 1 °C; ΔTm [30]: 1.6 °C
Cn1cc(C2=C(c3cn(CCCSC(=N)N)c4ccccc34)C(=O)NC2=O)c2ccccc21 | 1.5 °C | 0 °C | 0.6 °C | 8.4 °C | 7.7 °C | 3.8 °C | -0.1 °C | 2.1 °C | 5.3 °C | 0.1 °C | 0.7 °C | 10.6 °C | 0.7 °C | 1.9 °C | 12.8 °C | 0.9 °C | -0.5 °C | 3.1 °C | 2 °C | -1 °C | ΔTm [21]: 1.1 °C; ΔTm [22]: 3.9 °C; ΔTm [23]: 3.1 °C; ΔTm [24]: 5.1 °C; ΔTm [25]: 0.3 °C; ΔTm [26]: -0.6 °C; ΔTm [27]: 2.1 °C; ΔTm [28]: 7.5 °C; ΔTm [29]: 4.4 °C; ΔTm [30]: 0.9 °C
O=c1ccc2ccc(O)c(O)c2o1 [DAPHNETIN] | -0.6 °C | 0.2 °C | 0 °C | 0.7 °C | 0.8 °C | 0.3 °C | -0.4 °C | -0.1 °C | -0.6 °C | 0.5 °C | 0.1 °C | 0.1 °C | 0.3 °C | -0.1 °C | 0.2 °C | -0.3 °C | 0.1 °C | 0.7 °C | 0.1 °C | -0.3 °C | ΔTm [21]: -0.1 °C; ΔTm [22]: -0.5 °C; ΔTm [23]: 0 °C; ΔTm [24]: 0.1 °C; ΔTm [25]: -0.1 °C; ΔTm [26]: -0.2 °C; ΔTm [27]: 0.1 °C; ΔTm [28]: -0.5 °C; ΔTm [29]: 0.6 °C; ΔTm [30]: 0.1 °C
O=S(=O)(NCCNC/C=C/c1ccc(Br)cc1)c1cccc2cnccc12 | 3.8 °C | -0.3 °C | 0.6 °C | -0.5 °C | 1 °C | 0 °C | 0.6 °C | 0.9 °C | 0.7 °C | -0.1 °C | 0.1 °C | 1.6 °C | -0.3 °C | 1.2 °C | -0.6 °C | 0 °C | 0.9 °C | 0 °C | -0.1 °C | -0.1 °C | ΔTm [21]: -0.2 °C; ΔTm [22]: 1 °C; ΔTm [23]: 0 °C; ΔTm [24]: 0.7 °C; ΔTm [25]: 1 °C; ΔTm [26]: 0.9 °C; ΔTm [27]: 0.6 °C; ΔTm [28]: -0.4 °C; ΔTm [29]: 6.9 °C; ΔTm [30]: 0 °C
O=[N+]([O-])c1ccc(-c2nc(-c3ccc(F)cc3)c(-c3ccncc3)[nH]2)cc1 | 0.1 °C | 3.7 °C | 3 °C | 1.8 °C | 0.7 °C | 4.6 °C | 0.3 °C | -0.4 °C | -0.9 °C | -0.5 °C | 1.7 °C | 5.4 °C | 0.5 °C | 1 °C | 6.9 °C | 0.3 °C | -0.3 °C | 2.5 °C | 0.2 °C | 0.9 °C | ΔTm [21]: 0.1 °C; ΔTm [22]: 0.9 °C; ΔTm [23]: -0.2 °C; ΔTm [24]: 0.1 °C; ΔTm [25]: -1.4 °C; ΔTm [26]: -1.4 °C; ΔTm [27]: 0.7 °C; ΔTm [28]: 5.9 °C; ΔTm [29]: 1.6 °C; ΔTm [30]: 0 °C
